From a melting point compilation (Tetko et al.; mined from patent text by program, amines drawn as free bases though some values may be those of a salt) come the findings set out here.

Structures are written as SMILES.

The compound `Cc1ccccc1NC(=O)CN1CC2CCC(C1)N2S(=O)(=O)c1cccc2nonc12` registered a melting point of 167 to 168 °C.

For `c1cncc(-c2nncs2)c1`, the melting point was in the range of 78 to 79 °C. On to `NS(=O)(=O)c1ccc(Cl)cc1NC(=O)Nc1cccc(C(F)(F)F)c1`, for which the melting point lay within 163 to 165 °C.

Consider `O=c1[nH]c2ccc(Cl)cc2c(=O)n1CCCN1CC=C(c2ccc(Cl)cc2)CC1`, for which the melting point lay within 197 to 198 °C. `N#CN=C(NCc1ccccc1)Nc1cccnc1`: the melting point fell in the range of 189 to 190 °C. For `COC(=O)[C@H](Cc1ccc([N+](=O)[O-])cc1)NC(=S)C1(CCCCS(C)(=O)=O)CCC1`, the melting point fell in the range of 150 to 152 °C.

Compound `O=S1N=CC(NCc2ccncc2)=N1` (centres undefined) gave a melting point of 129 to 130 °C. Regarding `CC1(C)[C@@H](Cn2nccn2)CC[C@@]1(C)NCC(=O)N1C[C@@H](F)C[C@H]1C#N`, the melting point lay in the range of 84 to 87 °C. For `COc1cccc(C(=O)NN=C2C(=O)Nc3ccc(I)cc32)c1`, the melting point was determined as 287 °C. Consider `CC(C)CC(NC(=O)c1ccc(CBr)cc1)C(=O)NC(C)(C)C#N` (centres undefined), for which the melting point was in the range of 185 to 187 °C. For the compound `CC(C)C[C@H](NC(=O)c1cnccn1)C(=O)O`, the melting point lay in the range of 36 to 38 °C. In turn, `O=C(c1ccc(CN2CCOCC2)cc1)c1cccc2nc(N[C@@H]3CCc4ccccc43)ccc12` returned a melting point of 160 °C. Under `CN1C(=O)[C@H](NC(=O)CCNc2ccccc2)N=C(c2ccccc2)c2ccccc21` stands 218 to 221 °C. Compound `Cc1cc(Oc2ccc(C#CC(C)N(O)C(N)=O)o2)ccc1F` (centres undefined) registered a melting point of 131 to 132 °C. As to `CC(C)(C)Nc1c(NCc2ccccc2C(F)(F)F)c(=O)c1=O`, the melting point was 237 to 239 °C. Take `COc1ccc(N2CCN(C)CC2)cc1-c1cn[nH]c1N`: the melting point fell in the range of 174 to 178 °C. For `C=CC(C)(C)CC(NC(=O)c1ccc(Cl)cc1)NC(=NC#N)Nc1cccnc1` (centres undefined), the melting point is 171 to 172 °C.

Compound `CNC(=S)NS(=O)(=O)c1cc(CCNC(=O)c2cnc3ccccc3c2)ccc1OCCOc1ccccc1` returned a melting point of 89 to 91 °C. As for `COc1ccc(C=C2c3ccccc3C(=NO)c3ccccc32)cc1O`, the melting point is 140 °C. `COc1nc(=O)n(-c2ccc(Cl)cc2C)c(=O)[nH]1` showed a melting point of 193 to 195 °C. `COc1cc([N+](=O)[O-])cc(OC(F)F)c1OC` gave a melting point of 72 to 73 °C.

`Cc1noc(NS(=O)(=O)c2ccccc2-c2ccccc2CO)c1C` returned a melting point of 70 to 80 °C.

The compound `CS(=O)(=O)c1ccccc1C(=O)Cl` showed a melting point of 135 to 137 °C. In turn, `CCc1[nH][nH]c(=O)c1Cc1ccc2ccccc2c1` gave a melting point of 145 to 147 °C.

`CCCCCCCCCCCCOc1ccc(C=C(C(=O)OCC(O)CO)C(=O)OCC(O)CO)cc1` (centres undefined) registered a melting point of 80 to 85 °C. `CCOc1cc2c(c(F)c1F)OC(C1CCC(CC)CC1)CC2` (centres undefined) had a melting point of 90 °C.

`CN1C(=O)C(NC(=O)Nc2cccc(I)c2)N=C(N2CC3CCC(CC3)C2)c2ccccc21` (single isomer, unassigned; (+)) came in with a melting point of 220 to 222 °C.

`CN(C)C1CCN(C(=O)C2CCC(c3[nH]nc4c3C(=O)c3c(NC(=O)NN5CCOCC5)cccc3-4)CC2)C1` (centres undefined) registered a melting point of 191 to 193 °C. With `Cc1cc(OCC(=O)O)c2sc3ccccc3c(=O)c2c1C`, the melting point fell in the range of 226 to 229 °C. With `COc1cccc(-c2c(Cl)c(CCl)nc3sc4c(c23)CCN(Cc2ccccc2)C4)c1OC`, the melting point was 137 to 138 °C. Under `Cc1cc(-c2c(F)cc3c(=O)c(Cc4ccc(O)cc4)cn(C4CC4)c3c2F)cc(C)n1` stands 258 to 259 °C; under `CCN(CC)CCCn1ccc2cc(Nc3ncnc4cc(-c5ccccc5)sc34)ccc21`, 178 to 180 °C. To `CC(C)N1CCN(Cc2ccc(-c3ccc4c(Nc5ccc(Sc6nccn6C)c(Cl)c5)c(C#N)cnc4c3)cc2)CC1` belongs 193 to 195 °C. Compound `Nc1cc(C#Cc2ccc3c(C(=O)Nc4cccc(C(F)(F)F)c4)cccc3c2)ncn1` had a melting point of 217 to 220 °C. As to `N#Cc1ccc(N(Cc2ccc(OS(N)(=O)=O)cc2)n2cnnc2)cc1-c1cc2ccccc2o1`, the melting point was in the range of 202 to 203 °C. To `O=C(Nc1ccc(C(=O)N2Cc3ccccc3Cc3ccccc32)cc1)c1sc2ccccc2c1Cl` belongs 252 to 254 °C; to `Cc1cc2c(cc1-c1ccc(C#CC(=O)O)s1)C(C)(C)CCC2(C)C`, 138 to 140 °C.

The compound `COc1ccn(O)c(=O)c1` had a melting point of 174 to 175 °C.

As to `CCN(CC)CCOc1ccc(NC(=O)C#Cc2ccc(-c3ccccc3)cc2)cc1Cl`, the melting point fell in the range of 105 to 108 °C. The compound `COc1ccc(Cn2c(=S)[nH]c(=O)c3[nH]cnc32)cc1OC1CCCC1` returned a melting point of 254 to 265 °C. In the case of `COc1ccc2ccccc2c1CCCC(=O)O`, the melting point stood at 88 °C. Under `COc1cccc(CC(=O)O)c1OCCCc1cn(-c2ccc(F)cn2)nc1C(C)C` stands 125 to 126 °C; under `COC(=O)CCON1C(C)(C)CC(OCc2ccc(COC3CC(C)(C)N(OCCC(=O)OC)C(C)(C)C3)cc2)CC1(C)C`, 84 to 85 °C. With `CCOC(=O)COc1ccc(C(=O)Nc2ccccc2Oc2ccccc2-c2nnn[nH]2)cc1`, the melting point is 162 to 163 °C.

`CCCn1c(=O)c2[nH]c(-c3cc(C)n(CC(=O)Nc4cccc(Cl)c4)n3)nc2n(CCC)c1=O`: the melting point is 304 to 307 °C.

With `CC(=O)C(C(=O)Cc1ccccc1)C(=O)NS(=O)(=O)c1ccc(C)cc1` (centres undefined), the melting point came out at 120 °C. As to `SC1=Nc2ccccc2SN1`, the melting point was 198 to 199 °C. `CN(C)/C(=C1/Sc2ccccc2C1=O)c1ccccc1`: the melting point lay in the range of 179 to 180 °C. `C/C(=C\c1ccc(OC(C)C)cc1Oc1ncc(C(F)(F)F)cc1Cl)C(=O)NS(=O)(=O)NCCc1ccccn1` displayed a melting point of 121 to 123 °C. The compound `COCCOC(=O)c1ccc(C)c(-n2c(C)cc(OCc3ccccc3CNC(=O)Nc3cc(C(C)(C)C)nn3-c3cccc(OCCO)c3)c(Cl)c2=O)c1` yielded a melting point of 143 to 145 °C. For the compound `CS(=O)(=O)c1ccc(C2=C(c3ccc(Cl)c(Cl)c3)CCC2)cc1`, the melting point was in the range of 100 to 101 °C. For `CCCn1c(=O)c2c(nc(/C=C/c3ccc(OC(C)=O)c(OC(C)=O)c3)n2C)n(CCC)c1=O`, the melting point fell in the range of 229 to 230 °C.

Compound `COc1cc(C=CC(COc2ccccc2)=NO)ccc1O` came in with a melting point of 155 to 158 °C. The compound `Cc1ccccc1SC(NC=O)c1sccc1C` (centres undefined) gave a melting point of 103 to 104 °C. `Cc1csc2ccc3[nH]c4c(c3c12)CN(CCCN(C)C)CC4`: the melting point came to 184 °C.

`CN(C)S(=O)(=O)c1cc(-c2ccccc2)ccc1S(N)(=O)=O` displayed a melting point of 197 to 200 °C.

Take `CCCCCCCCCCCCCCCCCCC1(CO)OC(n2cccnc2=O)C(O)C1O` (centres undefined): the melting point came to 159 °C. `N#Cc1ccc(-c2ccc3c(c2)CCc2nn(-c4ccccn4)c(O)c2-3)cc1` had a melting point of 274 to 275 °C. With `CCCOCCNC(=O)C(c1ccccc1)c1ccccc1`, the melting point fell in the range of 77.8 to 78.9 °C. Compound `CC1(C)CCC(C)(C)c2cc(S(=O)(=O)n3c(CCCC(=O)O)cc4cc(Cl)ccc43)ccc21` came in with a melting point of 64 to 66 °C.

`N#Cc1c(N)nc2ccccc2c1NCc1cccs1` had a melting point of 208 °C. With `O=C1NC(=O)C2(C=Cc3c(Cl)sc(Cl)c32)N1` (centres undefined), the melting point is 239 to 241 °C.

Regarding `CN1CCN(C2=Nc3ccccc3N3CCc4cccc2c43)CC1`, the melting point was in the range of 149 to 151 °C. Take `CS(=O)(=O)Nc1ccccc1OC1CCCCC1=O` (centres undefined): the melting point lay within 104 to 106 °C. Turning to `COc1ccc2ccc(N3C(=O)C4=C(SCCO4)C3O)nc2n1` (centres undefined), the melting point amounted to 222 °C. `C=CCOC(=O)C(C)(C)Cc1c(SC(C)(C)C)c2cc(O)ccc2n1Cc1ccc(Cl)cc1` had a melting point of 150 to 151 °C. Compound `Cc1ccc(-n2cc(-c3cccn4nc(Nc5ccc(C6CCN(C(=O)OC(C)(C)C)CC6)cc5)nc34)cn2)cc1` showed a melting point of 124 to 125 °C. Under `COc1ccc(Cc2oc3c(Cl)cc(CCC(=O)O)c(O)c3c2C)cc1` stands 149 to 151 °C; under `CCC1(c2ccc(C(O)C(C)(C)C)cc2)OCCO1` (centres undefined), 52 to 56 °C. With `COc1nc(C2CC2)nc(O)c1C`, the melting point came to 178 °C. Take `CCOC(=O)Cc1ccc(NC(=O)C(COS(C)(=O)=O)NS(=O)(=O)c2ccc(Cl)cc2)cc1` (racemic): the melting point lay in the range of 142 to 143 °C. Consider `Cc1nn(C)c(NC(=O)Nc2ccccc2)c1C1=CCCCC1`, for which the melting point came out at 203 °C. Regarding `Cc1cccc(C2=CCN(c3ccc(O)nn3)CC2)c1`, the melting point is 179 °C. On to `Cc1nc(N2CCN(CC(=O)NCc3ccc(F)cc3)C2=O)sc1C(=O)NCc1ccccc1`, for which the melting point was 232 to 234 °C. The compound `COc1cc(NNc2nccc(Nc3ccc(N(C)C)cc3)n2)cc(OC)c1OC` came in with a melting point of 212 °C. Under `CN(CC(=O)[C@H](Cc1ccccc1)NC(=O)NC1CCCCC1)C(=O)N1CCC[C@H]1C(=O)O` stands 75 to 110 °C; under `O=C(O)c1ccc(-c2c3ccccc3nn2Cc2ccccc2)cc1`, 159 to 163 °C.

In the case of `O=C1C2Cc3c(ncn3Cc3ccccc3)CN2C(=S)N1c1ccccc1` (centres undefined), the melting point lay in the range of 224 to 226 °C. As for `Cc1nnc2n1-c1ccc(N)cc1C(c1ccccc1F)=NC2(C)C`, the melting point was 294 °C.

For the compound `CC(=O)CCc1nc2ccc3c(c2o1)C(CCNC(C)=O)CC3` (centres undefined), the melting point is 111 to 112 °C. In turn, `COC(=O)C1C2C=CC(C2)C1N(C)S(=O)(=O)c1ccc(OCc2ccccc2)cc1` (centres undefined) had a melting point of 103 to 104 °C. `CCO[C@@H]1[C@@H](OC)[C@H](C)O[C@@H](OC(=O)N(C(=O)CCC(=O)OC)c2ccc(-c3ncn(-c4ccc(OC(F)(F)C(F)(F)F)cc4)n3)cc2)[C@@H]1OC`: the melting point lay in the range of 72 to 76 °C.

Turning to `CCCCNc1c(C(=O)OCC)c(C)nc(S)c1[N+](=O)[O-]`, the melting point lay in the range of 140 to 142 °C. `CC1(C)OC(=O)C(Oc2ccc(Cl)cc2)=C1c1ccc(S(C)(=O)=O)cc1` gave a melting point of 113 to 114 °C.

The melting point is the temperature of the solid-liquid transition.
